Measured values published in patent publication US7718687B2, “Prodrugs of mitotic kinesin inhibitors” (Merck Sharp & Dohme Corp.,, priority 2004, dated 2010).

Target: T1, human KSP motor domain (KSP(367H)) (Homo sapiens, UniProt P52732)
T1 construct: were used to amplify the motor domain and the neck linker region; made in house; host or cells: E. coli BL21 (DE3), vector pRSETa
T1 sequence (P52732 18-359 limits assumed): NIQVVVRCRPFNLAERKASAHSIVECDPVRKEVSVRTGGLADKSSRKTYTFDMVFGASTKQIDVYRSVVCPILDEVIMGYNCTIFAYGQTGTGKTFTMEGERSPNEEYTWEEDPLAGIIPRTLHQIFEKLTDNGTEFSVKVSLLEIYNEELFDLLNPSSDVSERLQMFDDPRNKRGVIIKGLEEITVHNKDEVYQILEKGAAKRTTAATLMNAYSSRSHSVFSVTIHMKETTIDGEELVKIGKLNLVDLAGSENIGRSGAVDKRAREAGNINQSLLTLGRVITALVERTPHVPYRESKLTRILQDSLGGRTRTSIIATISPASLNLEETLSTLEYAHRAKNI
Assay: Kinesin ATPase In Vitro Assay
Assay type: biochemical
Settings: enantiomers of 1-5 resolved on Chiralpak AD; assay not stated
From the text: I. Kinesin ATPase In Vitro Assay
Cloning and Expression of Human Poly-Histidine Tagged KSP Motor Domain (KSP(367H))
Plasmids for the expression of the human KSP motor domain construct were cloned by PCR using a pBluescript full length human KSP construct (Blangy et al., Cell, vol. 83, pp 1159-1169, 1995) as a template. The N-terminal primer 5′-[…] (SEQ.ID.NO.: 1) and the C-terminal primer 5′-[…] […] (SEQ.ID.NO.: 2) were used to amplify the motor domain and the neck linker region. The PCR products were digested with AseI and XhoI, ligated into the NdeI/XhoI digestion product of pRSETa (Invitrogen) and transformed into E. coli BL21 (DE3).
Cells were grown at 37° C. to an OD600 of 0.5. […]
The kinesin motor domain is incubated with microtubules, 1 mM ATP (1:1 MgCl2: Na-ATP), and compound at 23° C. in buffer containing 80 mM K-HEPES (pH 7.0), 1 mM EGTA, 1 mM DTT, 1 mM MgCl2, and 50 mM KCl. […] Free phosphate from the ATP hydrolysis reaction is measured via a quinaldine red/ammonium molybdate assay by adding a […] of quench C (e.g., to a mixture of 40 μl reaction volume+40 μl stop buffer is then added 120 μl quench C). […] Quench C is a 2:1 ratio of quench A:quench B The reaction is incubated for 5-10 minutes at 23° C., and the absorbance of the phospho-molybdate complex is measured at 540 nm.

## CC(=O)N1N=C(c2cc(F)ccc2F)C[C@@]1(CCCO)c1ccccc1 (single isomer, unassigned; isomer 3) [(S) isomer]
  activity of resolved enantiomer (active / inactive): active
